# Measured values as given in patent publication US20070219236A1, “Dialkoxy-Imidazopyridines Derivatives” (Atlanta Pharma AG, priority 2004, published 2007).
# Test system: pentagastrin-stimulated acid secretion of the perfused rat stomach
# Experiment: Secretion-inhibiting action on the perfused rat stomach (pentagastrin-stimulated acid secretion)
# Assay type: in vivo
# Details: anesthetized CD rat, female; dose 2 μmol/kg i.d. (intraduodenal); pentagastrin 1 μg/kg i.v. continuous infusion
# Source text: Testing of the Secretion-Inhibiting Action on the Perfused Rat Stomach
# In Table A which follows, the influence of the compounds according to the invention on the pentagastrin-stimulated acid secretion of the perfused rat stomach after intraduodenal administration in vivo is shown.
# The abdomen of anesthetized rats (CD rat, female, 200-250 g; 1.5 g/kg i.m. urethane) was opened after tracheotomy by a median upper abdominal incision and a PVC catheter was fixed transorally in the esophagus and another via the pylorus such that the ends of the tubes just projected into the gastric lumen. The catheter leading from the pylorus led outward into the right abdominal wall through a side opening.
# After thorough rinsing (about 50-100 ml), warm (37° C.) physiological NaCl solution was continuously passed through the stomach (0.5 ml/min, pH 6.8-6.9; Braun-Unita I). The pH (pH meter 632, glass electrode EA 147; Φ=5 mm, Metrohm) and, by titration with a freshly prepared 0.01N NaOH solution to pH 7 (Dosimat 665 Metrohm), the secreted HCl were determined in the effluent in each case collected at an interval of 15 minutes.
# The gastric secretion was stimulated by continuous infusion of 1 μg/kg (=1.65 ml/h) of i.v. pentagastrin (left femoral vein) about 30 min after the end of the operation (i.e. after determination of 2 preliminary fractions). The substances to be tested were administered intraduodenally in a 2.5 ml/kg liquid volume 60 min after the start of the continuous pentagastrin infusion.
# The body temperature of the animals was kept at a constant 37.8-38° C. by infrared irradiation and heat pads (automatic, stepless control by means of a rectal temperature sensor).
row,Compound,Inhibition of acid secretion (%)
1,"COc1ccc2nc([S+]([O-])Cc3nccc(OC)c3OC)[nH]c2n1 (stereo not drawn) [Example 1, 2-(3,4-Dimethoxy-pyridine-2-ylmethanesulfinyl)-5-methoxy-3H-imidazo[4,5-b]pyridine]",>50
2,"COc1ccc2nc([S@+]([O-])Cc3nccc(OC)c3OC)[nH]c2n1 [Example 3, (R)-2-(3,4-Dimethoxy-pyridine-2-ylmethanesulfinyl)-5-methoxy-3H-imidazo[4,5-b]pyridine]",>50
3,"COc1ccc2nc([S@@+]([O-])Cc3nccc(OC)c3OC)[nH]c2n1 [Example 2, (S)-2-(3,4-Dimethoxy-pyridine-2-ylmethanesulfinyl)-5-methoxy-3H-imidazo[4,5-b]pyridine]",>50
